Assay results reported in US7767659B2, “Synthesis of naturally occurring ecteinascidins and related compounds” (Pharma Mar, S.A., priority 2002, dated 2010).

Key:
LoVo = assay: cells; settings: Homo sapiens, LoVo, 48 h; for GI50: read-out: LOVO GI50; for CC50: read-out: LOVO LC50; for IC (TGI): read-out: LOVO TGI
How it was run: (§1)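 Colorimetric SRB read (490 nm) on triplicate wells after 48 h at 37 °C, 5% CO2. Dose range 10 to 10^−8 μg/ml; 5×10^3 cells/well pre-attached 18 h.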

A-549 = assay: cells; settings: Homo sapiens, A549, 48 h; for GI50: read-out: A549 GI50; for CC50: read-out: A549 LC50; for IC (TGI): read-out: A549 TGI
How it was run: as §1

HT-29 = assay: cells; settings: Homo sapiens, HT-29, 48 h; for GI50: read-out: HT29 GI50; for CC50: read-out: HT29 LC50; for IC (TGI): read-out: HT29 TGI
How it was run: as §1

K-562 = assay: Inhibition of cells growth by colorimetric assay (SRB); settings: Homo sapiens, K562, 48 h; for GI50: read-out: K562 GI50; for CC50: read-out: K562 LC50; for IC (TGI): read-out: K562 TGI
How it was run: as §1

LoVo-Dox = assay: as above; settings: Homo sapiens, 48 h; for GI50: read-out: LOVO-DOX GI50; for CC50: read-out: LOVO-DOX LC50; for IC (TGI): read-out: LOVO-DOX TGI
How it was run: as §1

HeLa = assay: as above; settings: Homo sapiens, HeLa, 48 h; for GI50: read-out: HELA GI50; for CC50: read-out: HELA LC50; for IC (TGI): read-out: HELA TGI
How it was run: as §1

LNCaP = assay: as above; settings: Homo sapiens, LNCaP, 48 h; for GI50: read-out: LNCAP GI50; for CC50: read-out: LNCAP LC50; for IC (TGI): read-out: LNCAP TGI
How it was run: as §1

IGROV-ET = assay: as above; settings: Homo sapiens, 48 h; for GI50: read-out: IGROV-ET GI50; for CC50: read-out: IGROV-ET LC50; for IC (TGI): read-out: IGROV-ET TGI
How it was run: as §1

SK-BR-3 = assay: as above; settings: Homo sapiens, SK-BR-3, 48 h; for GI50: read-out: SK-BR3 GI50; for CC50: read-out: SK-BR3 LC50; for IC (TGI): read-out: SK-BR3 TGI
How it was run: as §1

SK-MEL-28 = assay: as above; settings: Homo sapiens, SK-MEL-28, 48 h; for GI50: read-out: MEL-28 GI50; for CC50: read-out: MEL-28 LC50; for IC (TGI): read-out: MEL-28 TGI
How it was run: as §1

HeLa-APL = assay: as above; settings: Homo sapiens, 48 h; for GI50: read-out: HELA-APL GI50; for CC50: read-out: HELA-APL LC50; for IC (TGI): read-out: HELA-APL TGI
How it was run: as §1

DU-145 = assay: as above; settings: Homo sapiens, DU-145, 48 h; for GI50: read-out: DU145 GI50; for CC50: read-out: DU145 LC50; for IC (TGI): read-out: DU145 TGI
How it was run: as §1

PANC-1 = assay: as above; settings: Homo sapiens, PANC-1, 48 h; for GI50: read-out: PANC-1 GI50; for CC50: read-out: PANC-1 LC50; for IC (TGI): read-out: PANC-1 TGI
How it was run: as §1

IGROV-1 = assay: as above; settings: Homo sapiens, IGROV-1, 48 h; for GI50: read-out: IGROV GI50; for CC50: read-out: IGROV LC50; for IC (TGI): read-out: IGROV TGI
How it was run: as §1

`COc1c(C)cc2c(c1OC(=O)/C=C/c1ccccc1)[C@H]1N[C@@H](C2)[C@H](O)N2C1[C@@H]1SCC(NC(=O)C(F)(F)F)C(=O)OC[C@H]2c2c3c(c(C)c(OC(C)=O)c21)OCO3` (stereo partly drawn) [compound 40] gave a GI50 (LoVo) of 213 nM, a CC50 (LoVo) of 1680 nM and an IC (TGI) (LoVo) of 552 nM. The GI50 (A-549) was 195 nM, the CC50 (A-549) was 1030 nM and the IC (TGI) (A-549) was 447 nM. The GI50 (HT-29) was 337 nM, the CC50 (HT-29) was 3840 nM and the IC (TGI) (HT-29) was 1050 nM. The GI50 (K-562) was 41.4 nM, the CC50 (K-562) was 776 nM and the IC (TGI) (K-562) was 131 nM. The GI50 (LoVo-Dox) was 354 nM, the CC50 (LoVo-Dox) was 2790 nM and the IC (TGI) (LoVo-Dox) was 810 nM. It also gave a GI50 (HeLa) of 111 nM, a CC50 (HeLa) of 661 nM and an IC (TGI) (HeLa) of 276 nM. The GI50 (LNCaP) was 48.1 nM, the CC50 (LNCaP) was 509 nM and the IC (TGI) (LNCaP) was 162 nM. It also gave a GI50 (IGROV-ET) of 289 nM, a CC50 (IGROV-ET) of 980 nM and an IC (TGI) (IGROV-ET) of 533 nM. It also gave a GI50 (SK-BR-3) of 42.6 nM, a CC50 (SK-BR-3) of 524 nM and an IC (TGI) (SK-BR-3) of 97.6 nM. The GI50 (SK-MEL-28) was 162 nM, the CC50 (SK-MEL-28) was 688 nM and the IC (TGI) (SK-MEL-28) was 334 nM. The GI50 (HeLa-APL) was 153 nM, the CC50 (HeLa-APL) was 775 nM and the IC (TGI) (HeLa-APL) was 344 nM. It also gave a GI50 (DU-145) of 5630 nM, a CC50 (DU-145) of 1630 nM and an IC (TGI) (DU-145) of 160 nM. For the same molecule, the GI50 (PANC-1) was 321 nM, the CC50 (PANC-1) was 2570 nM and the IC (TGI) (PANC-1) was 747 nM. It also gave a GI50 (IGROV-1) of 91.3 nM, a CC50 (IGROV-1) of 1280 nM and an IC (TGI) (IGROV-1) of 317 nM.

With `C=CCN1[C@@H]2c3c(cc(C)c(OC)c3O)C[C@H]1[C@H](O)N1C2[C@@H]2SCC(NC(C)=O)C(=O)OC[C@H]1c1c3c(c(C)c(OC(C)=O)c12)OCO3` (stereo partly drawn) [compound 41] the GI50 (LoVo) was 37.8 nM, the CC50 (LoVo) was 14700 nM and the IC (TGI) (LoVo) was 94 nM. For the same molecule, the GI50 (A-549) was 43.1 nM, the CC50 (A-549) was 125 nM and the IC (TGI) (A-549) was 73.5 nM. For the same molecule, the GI50 (HT-29) was 42.7 nM, the CC50 (HT-29) was 14700 nM and the IC (TGI) (HT-29) was 120 nM. The GI50 (K-562) was 20.4 nM, the CC50 (K-562) was 125 nM and the IC (TGI) (K-562) was 50.5 nM. It also gave a GI50 (LoVo-Dox) of 270 nM, a CC50 (LoVo-Dox) of 14700 nM and an IC (TGI) (LoVo-Dox) of 1180 nM. For the same molecule, the GI50 (HeLa) was 28.2 nM, the CC50 (HeLa) was 120 nM and the IC (TGI) (HeLa) was 58.1 nM. It also gave a GI50 (LNCaP) of 0.95 nM, a CC50 (LNCaP) of 92.8 nM and an IC (TGI) (LNCaP) of 31.4 nM. It also gave a GI50 (IGROV-ET) of 41.8 nM, a CC50 (IGROV-ET) of 14700 nM and an IC (TGI) (IGROV-ET) of 87.1 nM. It also gave a GI50 (SK-BR-3) of 32.3 nM, a CC50 (SK-BR-3) of 352 nM and an IC (TGI) (SK-BR-3) of 72.2 nM. It also gave a GI50 (SK-MEL-28) of 33.7 nM, a CC50 (SK-MEL-28) of 123 nM and an IC (TGI) (SK-MEL-28) of 64.5 nM. The GI50 (HeLa-APL) was 30.1 nM, the CC50 (HeLa-APL) was 132 nM and the IC (TGI) (HeLa-APL) was 63.1 nM. For the same molecule, the GI50 (DU-145) was 45.3 nM, the CC50 (DU-145) was 274 nM and the IC (TGI) (DU-145) was 75.5 nM. It also gave a GI50 (PANC-1) of 37.7 nM, a CC50 (PANC-1) of 14700 nM and an IC (TGI) (PANC-1) of 100 nM. For the same molecule, the GI50 (IGROV-1) was 15.7 nM, the CC50 (IGROV-1) was 121 nM and the IC (TGI) (IGROV-1) was 43.7 nM.
